{"source": "paper PMC9045272", "about": "“Quorum-Sensing Master Regulator VfmE Is a c-di-GMP Effector That Controls Pectate Lyase Production in the Phytopathogen Dickeya dadantii” (Microbiology Spectrum, 2022)", "key": {"VfmE": {"molecular_target": "T1, VfmE (Dickeya dadantii, UniProt E0SMH0)", "T1 construct": "full length, N-terminal 6xHis-MBP fusion (pMAL-c6T) kept, expressed in E. coli NEBExpress, soluble lysate coated on plate", "T1 sequence (E0SMH0 entry or part of it)": "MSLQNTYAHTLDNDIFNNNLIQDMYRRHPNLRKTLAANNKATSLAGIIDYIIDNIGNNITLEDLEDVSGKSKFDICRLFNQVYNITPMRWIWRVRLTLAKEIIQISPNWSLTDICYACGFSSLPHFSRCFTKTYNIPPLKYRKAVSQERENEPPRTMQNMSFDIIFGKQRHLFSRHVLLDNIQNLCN", "test": "ELISA with biotinylated c-di-GMP, competed by unlabelled c-di-GMP", "format": "binding", "details": "labelled compound (25 nM biotinylated c-di-GMP, Biolog); competition with 10 uL of 250 nM unlabelled c-di-GMP; PBS pH 7.4, room temperature; plate coated with lysate protein"}, "YcgR from D. dadantii": {"molecular_target": "T2, YcgR from D. dadantii (Dickeya dadantii, UniProt E0SAQ7)", "T2 construct": "6xHis-tagged, recombinant, soluble lysate coated on plate", "T2 sequence (E0SAQ7 entry or part of it)": "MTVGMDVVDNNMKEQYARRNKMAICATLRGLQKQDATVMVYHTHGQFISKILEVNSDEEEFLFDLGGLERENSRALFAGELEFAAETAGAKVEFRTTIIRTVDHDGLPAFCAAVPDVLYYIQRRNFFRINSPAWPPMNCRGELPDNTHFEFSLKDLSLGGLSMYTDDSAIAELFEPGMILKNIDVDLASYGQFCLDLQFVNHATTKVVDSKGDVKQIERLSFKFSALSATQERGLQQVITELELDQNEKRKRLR", "test": "ELISA with biotinylated c-di-GMP, competed by unlabelled c-di-GMP", "format": "binding", "details": "labelled compound (25 nM biotinylated c-di-GMP, Biolog); competition with 10 uL of 250 nM unlabelled c-di-GMP; PBS pH 7.4, room temperature; plate coated with lysate protein; positive control protein"}}, "data": [{"smiles": "Nc1nc2c(ncn2[C@@H]2O[C@@H]3COP(=O)(O)O[C@H]4[C@@H](O)[C@H](n5cnc6c(=O)[nH]c(N)nc65)O[C@@H]4COP(=O)(O)O[C@H]3[C@H]2O)c(=O)[nH]1", "note": "[c-di-GMP]", "values": [{"measurement": "ELISA with biotinylated c-di-GMP, competed by unlabelled c-di-GMP", "setting": "VfmE", "value": "VfmE binds c-di-GMP with specificity comparable to that of a known c-di-GMP effector, YcgR"}, {"measurement": "ELISA with biotinylated c-di-GMP, competed by unlabelled c-di-GMP", "setting": "YcgR from D. dadantii", "value": "We observed a reduced absorbance in both VfmE- and YcgR-treated wells"}]}]}
